Data set [1] deals with recombinant human F16BPase (Homo sapiens, UniProt P09467). Conditions: read-out: IC50 against the human enzyme; allosteric inhibitor; 40 minutes at room temperature without preincubation of compound with enzyme.
Procedure: Fructose-1,6-bisphosphatase Enzyme Assay: Fructose-1,6-bisphosphatase (F16BP) is assayed by measuring its ability to hydrolyze inorganic phosphate from fructose-1,6-bisphosphate using a modification of a reported method (Biochem. J. 1994, 298, 395). […] The final solution consists of 50 mM HEPES (catalog #H7523, Sigma Chemical Company, PO Box 14508, St. Louis, Mo. 63178) pH=7.2, 100 mM KCl (Sigma catalog #P3911), 2 mM MgCI2 (Sigma catalog #M9272), 2 mM EGTA (Sigma catalog #E0396), 1 mM DTT (Sigma atalog #D5545), and 500 1 μM fructose-1,6-bisphosphate (Sigma catalog #752-1). The solution is incubated for 40 minutes at room temperature without preincubation of compound with enzyme. The phosphate released by the enzyme is measured spectrophotometrically using a Titertek Multiscann MCC 340 (Titertek, 330 Wynn Drive, Huntsville, Ala. 35805) at 620 nm, after allowing the phosphate to form a complex for 10 minutes after the addition of 150 μL of ammonium molybdate/malachite green (AM/MG) solution. To prepare the AM/MG solution, one volume of 4.2% ammonium molybdate (w/v, Sigma catalog #A7302) in 4 molar aqueous hydrochloric acid is added to three volumes of 0.045% malachite green (w/v, Sigma catalog #M9636) and 0.01% Tween®-20 (v/v, Sigma catalog #P1379) in water. […]
For data set [2], the system named is transplanted human mammary carcinoma which expresses epidermal growth factor receptor tyrosine kinase (EGFR). Conditions: athymic nude mice; cited from earlier work.
Data set [3] relates to another carcinoma which does not express the EGF receptor. Conditions: mouse, in vivo; cited from earlier work.

Chain of recombinant human F16BPase (P09467 whole entry): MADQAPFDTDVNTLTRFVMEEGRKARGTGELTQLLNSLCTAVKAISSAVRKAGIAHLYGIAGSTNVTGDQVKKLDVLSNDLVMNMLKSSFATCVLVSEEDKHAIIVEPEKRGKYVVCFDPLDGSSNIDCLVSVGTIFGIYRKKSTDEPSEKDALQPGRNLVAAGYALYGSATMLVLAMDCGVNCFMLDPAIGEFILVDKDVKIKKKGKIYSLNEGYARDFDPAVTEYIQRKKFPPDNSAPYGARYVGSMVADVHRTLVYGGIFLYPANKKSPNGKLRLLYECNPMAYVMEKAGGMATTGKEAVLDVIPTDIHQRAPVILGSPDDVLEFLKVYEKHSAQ

As a reminder, the IC50 is the concentration that gives 50% inhibition. As for `Nc1ncnc2c1ncn2[C@@H]1O[C@H](COP(=O)(O)O)[C@@H](O)[C@H]1O` [AMP, adenosine 5′-monophosphate], the IC50 in data set [1] is 800 nM.
As a reminder, the melting point is the temperature, or range, at which the solid turns liquid. In turn, `CCOc1cc2nc(CCl)nc(Nc3cccc(-c4csc(C)n4)c3)c2cc1OCC.Cl` registered a melting point of 252 to 256 °C.
On to `O=CN/C=C/c1cc(O)ccc1O` [erbstatin], for which the “growth of transplanted human mammary carcinoma expressing EGFR” value in data set [2] is recorded as “selectively attenuates the growth”. The “growth of carcinoma which does not express the EGF receptor” value in data set [3] is recorded as “without effect on the growth”.

These data come from US20030144308A1, “Fructose 1,6-bisphosphatase inhibitors” (priority 2001, published 2003).
